1 compound from PMC10010340, “The Wnt Pathway Inhibitor RXC004 Blocks Tumor Growth and Reverses Immune Evasion in Wnt Ligand–dependent Cancer Models” (Cancer Research Communications, 2022) can be followed below.

Series [1] in a line: Microsomal stability. Conditions: Rat, 1 μmol/L. The format is in vitro ADME, rat (Sprague Dawley). As to the method:
(§1) Metabolic stability: liver microsomes and hepatocytes from human, mouse (CD1), rat (Sprague Dawley) and dog (Beagle) were obtained from Invitrogen. RXC004 (1 μmol/L) was incubated at 37°C with microsomes (0.5 mg · mL^−1) or hepatocytes (0.5 × 10^6 cells · mL^−1). Aliquots were removed at 0–45 minutes and RXC004 concentrations determined by LC/MS-MS analysis. Half-life (T1/2) and intrinsic clearance (CLint) were calculated as described in ref. [18].

The nature of series [2]: Hepatocyte stability. Conditions: Mouse, 1 μmol/L. The format is in vitro ADME, mouse (CD1). As to the method: as §1
Series [3] is described as follows: Hepatocyte stability. The format is in vitro ADME, rat (Sprague Dawley). Conditions: Rat, 1 μmol/L. The protocol:
as §1

Series [4] concerns AsPC1 xenograft. The series is described as follows: Xenograft pilot study. The format is in vivo, mouse (athymic nude). The note with it: AsPC1, 1.5 mg/kg twice daily oral. The protocol: (§2) The in vivo pilot studies were performed at Axis Bioservices. HPAF-II (5 × 10^6 cells; athymic nude mice), AsPC1 (3 × 10^6 cells; athymic nude mice), and SNU-1411 (1 × 10^7 cells; NOD-SCID mice) were implanted bilaterally, subcutaneously, whereas HCT116 (3 × 10^6 cells; athymic nude mice) were implanted in a single flank. Animals were randomized into the indicated groups and treatment initiated once tumor volumes reached approximately 100–150 mm^3. Dosing was either 1.5 mg/kg twice daily RXC004 for 7–13 days then once daily for the remainder of study (up to 29 days), or 28 days 1.5 mg/kg twice daily RXC004 for HCT116. In these and all other animal studies, unless otherwise specified, RXC004 was dosed orally in 0.5% carboxymethylcellulose + 0.1% Tween-80. For AsPC1, an ascites model, end of study tumor weight (mg) was measured. A total of 12 hours after the final dose, RNA was extracted [GenElute RNA isolation kit (#RTN70, Sigma)] from snap frozen tumor for qRT-PCR expression analysis of Axin2, c-Myc, RNF43, MUC4, and MUC5AC relative to appropriate housekeepers.

For series [5], the system named is HPAF-II xenograft. The series is described as follows: Xenograft pilot study. The format is in vivo, mouse (athymic nude). Conditions: 1.5 mg/kg twice daily oral. The protocol: as §2
Series [6] concerns HCT116 xenograft. The series is described as follows: Xenograft pilot study. The format is in vivo, mouse (athymic nude). The note with it: HCT116, 1.5 mg/kg twice daily oral, 28 days. The protocol:
as §2

The nature of series [7]: Lipophilicity (logD7.4). The format is physicochemical. The protocol:
Lipophilicity (logD7.4): A total of 30 μL of a 20 mmol/L stock solution of RXC004 was added to a vial containing 1.5 mL of pH7.4 phosphate buffer saturated octanol and 1.5 mL of octanol-saturated pH7.4 phosphate buffer, shaken and centrifuged to ensure phase separation. logD7.4 was calculated as the logarithm of the ratio of the concentration of RXC004 (measured by LC-UV in octanol vs. buffer phase).

A short description of series [8]: In vivo pharmacokinetics. The note with it: beagle, dog. As to the method: In vivo pharmacokinetics: RXC004 was dosed to male Sprague Dawley rats, male CD1 mice or dog (beagle) by intravenous and oral routes. Bioanalysis of blood and plasma samples was performed by LC/MS-MS using a Waters TQS or TQMS mass spectrometer. Pharmacokinetic information was derived using WinNonlin software (Certara).

Series [9] deals with HPAF-II xenograft. The series is described as follows: In vivo 18FDG-PET biodistribution. On the set-up: species or system mouse (NOD-SCID). The note with it: 5 mg/kg once daily, 7-day dosing. As to the method:
Experiment was performed at Medicines Discovery Catapult. SNU-1411 (1 × 10^7 cells; NOD-SCID mice) or HPAF-II (1 × 10^7 cells; NOD-SCID mice) were implanted subcutaneously and treatment with RXC004 (5 mg/kg once daily) or vehicle commenced when tumors reached approximately 200 mm^3. Mice were imaged prior to dosing, day 3 and day 7 after dosing. A 10 MBq injection of ^18FDG (PETNET), with a 45-minute washout was followed by a 20-minute PET scan using a Siemens Inveon PET scanner. Tissues removed on day 7 for biodistribution analysis were assessed using a PerkinElmer Wallac Wizard Gamma counter.

Series [10] has as its system HPAF-II cells. The series is described as follows: Caspase 3/7 analysis. The format is cell-based, human. Conditions: 100nM, 7 days. The protocol:
(§3) Cells were treated with RXC004 (100 nmol/L) or DMSO (0.02%) for 7 days. Caspase 3/7 activity was measured using Caspase-Glo 3/7 Assay System (Promega #G8091) and data were plotted as a ratio relative to cell number as quantified using ATPlite 1-Step Reagent (Perkin Elmer #6016731).

Series [11] relates to SNU-1411 cells. The series is described as follows: Caspase 3/7 analysis. The format is cell-based, human. The note with it: SNU-1411, 100nM, 7 days. The protocol:
as §3

Series [12] in a line: Microsomal stability. The format is in vitro ADME, dog (Beagle). Conditions: Dog, 1 μmol/L. The protocol:
as §1

Series [13] concerns cell lines with RNF43 LoF mutations and RSPO3 fusions. Nature of the series: Wnt-responsive gene expression (qPCR). The format is cell-based, human. Conditions: 10 nmol/L, 3 days. An excerpt:
The expression of nine potential Wnt-responsive genes was screened across cell lines by treatment with RXC004 (10 nmol/L) or DMSO (0.1%) for 3 days. RNA was extracted (Aurum RNA isolation kit, Bio-Rad #372-6820) and gene expression assessed by Taqman qPCR relative to appropriate housekeeping genes on the Bio-Rad CFX real-time system.
For concentration–response effects on gene expression, Single-Shot Cell Lysis kit (Bio-Rad #172-5080) was used for RNA extraction, data were normalized to DMSO-treated controls, and IC50 values determined. For cell-cycle analysis, the cancer cell line panel was treated with RXC004 (100 nmol/L) or DMSO (0.1%) for 3 days. Cell-cycle profiles were determined by staining with propidium iodide (Thermo Fisher Scientific #P3566) and phospho-Ser10-Histone-H3 (AlexaFluor-647, BioLegend #650806), and quantified using an Agilent Novocyte-3000 flow cytometer. For in vitro growth curve analysis, HPAF-II and SNU-1411 cells were seeded in 96-well plates at 2,000 cells/well and imaged on the IncuCyte (Sartorius) at 10× magnification with 4 fields of view per well. Total cell object count over time was calculated using the Adherent Cell-by-Cell analysis module.

As to `Cc1c(-c2ccnc(C(F)(F)F)c2)ncn1CC(=O)Nc1ccc(-c2cnccn2)cn1` [RXC004, 2-[5-methyl-4-[2-(trifluoromethyl)-4-pyridyl]imidazol-1-yl]-N-(5-pyrazin-2-yl-2-pyridyl)acetamide], the “Microsomal stability: CLint” value in [1] was determined as 7.8 μL minute^−^1 · mg^−^1; in series [12] it was 31.6 μL minute^−^1 · mg^−^1. Moreover, the “Hepatocyte stability: CLint” value in series [2] is recorded as <3.0 μL minute^−^1 · 10^6 cells^−^1; in series [3], 5.3 μL minute^−^1 · 10^6 cells^−^1. The “Wnt-responsive gene expression in tumor including c-Myc” value in [4] and in [5] was “inhibition of Wnt-responsive gene expression” throughout. Besides, the “tumor growth (tumor weight)” value in series [4] is reported as “reduction in tumor growth”. The tumor growth entry in series [5] was “reduction in tumor growth”; in series [6], “No effect”. The logD in [7] (octanol/phosphate buffer, pH 7.4, pH 7.4, octanol/phosphate buffer, read-out: Measured log D7.4) is 2.4. Also, the “Measured log D7.4” value in [7] (pH 7.4, octanol/phosphate buffer) worked out at 2.44. Further, the half-life in [8] (dose i.v./p.o. 2/5 mg/kg, read-out: T½ (converted)) was 48 min. Also, the clearance in series [8] (intravenous, 2 mg/kg, dose i.v./p.o. 2/5 mg/kg) worked out at 8.9 mL/min/kg. In series [8] (intravenous, 2 mg/kg, dose i.v./p.o. 2/5 mg/kg, read-out: Vss), the Vd came out at 0.39 L/kg. Besides, the AUC(0-inf) in series [8] (po, 5 mg/kg p.o.) worked out at 8.6 µM·h. The same compound showed a maximum concentration (Cmax) in [8] (po, 5 mg/kg p.o.) of 10.4 µM. For the same compound, the concentration at 24 h in series [8] (po, 5 mg/kg p.o., read-out: C24h (p.o.)) was found to be 0.012 µM. For the same compound, the “18FDG tumor:blood ratios” value in series [9] is given as “significant decrease in tumor:blood ratios”. The “relative Caspase 3/7 activity” value in [10] and in series [11] was “no effect” in each case. Besides, the “mRNA expression of Wnt pathway targets Axin2, RNF43, c-Myc, CD44, MMP7” value in series [13] is recorded as “downregulated mRNA expression of Wnt pathway targets”. Also, the “mucin mRNA” value in series [13] is given as “marked increase in mucin mRNA”.
